Type in all cases: cell-based
One assay addresses T1, human TLR7 (Homo sapiens, UniProt Q9NYK1).
T1 construct: host or cells: HEK-Blue cells
T1 sequence (Q9NYK1 27-1049): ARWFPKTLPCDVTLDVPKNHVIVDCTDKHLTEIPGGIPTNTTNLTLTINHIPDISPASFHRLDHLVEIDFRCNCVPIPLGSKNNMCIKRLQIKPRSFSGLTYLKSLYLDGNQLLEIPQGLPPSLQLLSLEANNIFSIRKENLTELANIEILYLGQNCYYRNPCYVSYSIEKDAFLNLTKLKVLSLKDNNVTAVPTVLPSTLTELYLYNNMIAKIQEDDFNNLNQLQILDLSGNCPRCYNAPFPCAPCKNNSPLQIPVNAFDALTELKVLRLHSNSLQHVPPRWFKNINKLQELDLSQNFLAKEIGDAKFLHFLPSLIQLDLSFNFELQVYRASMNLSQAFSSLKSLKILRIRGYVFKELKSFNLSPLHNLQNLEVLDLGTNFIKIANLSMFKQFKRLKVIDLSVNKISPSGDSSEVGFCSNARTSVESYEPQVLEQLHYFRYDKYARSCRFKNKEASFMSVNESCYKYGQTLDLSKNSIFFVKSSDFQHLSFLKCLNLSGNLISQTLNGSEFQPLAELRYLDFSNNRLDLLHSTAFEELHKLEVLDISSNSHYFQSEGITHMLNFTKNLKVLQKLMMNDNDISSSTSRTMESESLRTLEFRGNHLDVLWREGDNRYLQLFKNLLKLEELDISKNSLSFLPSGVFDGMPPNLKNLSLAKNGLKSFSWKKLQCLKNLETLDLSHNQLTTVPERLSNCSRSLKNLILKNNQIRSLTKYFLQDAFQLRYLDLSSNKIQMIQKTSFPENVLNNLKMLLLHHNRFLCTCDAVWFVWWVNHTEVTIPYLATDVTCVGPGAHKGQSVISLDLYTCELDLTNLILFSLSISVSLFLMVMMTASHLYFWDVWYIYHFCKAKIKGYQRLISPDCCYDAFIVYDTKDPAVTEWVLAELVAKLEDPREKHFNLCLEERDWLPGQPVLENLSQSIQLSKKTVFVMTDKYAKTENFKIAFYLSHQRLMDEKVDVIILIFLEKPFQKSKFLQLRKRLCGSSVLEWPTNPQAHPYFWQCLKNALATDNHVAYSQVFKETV
The assay can be described thus: TLR7 inhibition reporter assay (HEK-Blue cells, SEAP reporter, gardiquimod stimulation). Conditions: HEK-Blue cells overexpressing human TLR7, SEAP reporter, gardiquimod 7.5 μM. The procedure, abridged:
(§1)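 Dose range 0.05 nM–50 μM; 30 min preincubation, RT. Agonists: TLR7 gardiquimod 7.5 μM, TLR8 R848 15.9 μM, TLR9 ODN2006 5 nM. 22 h, 37 °C, 5% CO2. SEAP (IFN-β minimal promoter with NF-κB/AP-1 sites) via colorimetric detection medium; % inhibition vs agonist+DMSO and reference-inhibitor wells.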
(In general: Reporter assays use an easily measured gene product as a stand-in for the process of interest.)

The target of another assay is T2, human TLR8 (Homo sapiens, UniProt Q9NR97).
T2 construct: host or cells: HEK-Blue cells
T2 sequence (Q9NR97 27-1041): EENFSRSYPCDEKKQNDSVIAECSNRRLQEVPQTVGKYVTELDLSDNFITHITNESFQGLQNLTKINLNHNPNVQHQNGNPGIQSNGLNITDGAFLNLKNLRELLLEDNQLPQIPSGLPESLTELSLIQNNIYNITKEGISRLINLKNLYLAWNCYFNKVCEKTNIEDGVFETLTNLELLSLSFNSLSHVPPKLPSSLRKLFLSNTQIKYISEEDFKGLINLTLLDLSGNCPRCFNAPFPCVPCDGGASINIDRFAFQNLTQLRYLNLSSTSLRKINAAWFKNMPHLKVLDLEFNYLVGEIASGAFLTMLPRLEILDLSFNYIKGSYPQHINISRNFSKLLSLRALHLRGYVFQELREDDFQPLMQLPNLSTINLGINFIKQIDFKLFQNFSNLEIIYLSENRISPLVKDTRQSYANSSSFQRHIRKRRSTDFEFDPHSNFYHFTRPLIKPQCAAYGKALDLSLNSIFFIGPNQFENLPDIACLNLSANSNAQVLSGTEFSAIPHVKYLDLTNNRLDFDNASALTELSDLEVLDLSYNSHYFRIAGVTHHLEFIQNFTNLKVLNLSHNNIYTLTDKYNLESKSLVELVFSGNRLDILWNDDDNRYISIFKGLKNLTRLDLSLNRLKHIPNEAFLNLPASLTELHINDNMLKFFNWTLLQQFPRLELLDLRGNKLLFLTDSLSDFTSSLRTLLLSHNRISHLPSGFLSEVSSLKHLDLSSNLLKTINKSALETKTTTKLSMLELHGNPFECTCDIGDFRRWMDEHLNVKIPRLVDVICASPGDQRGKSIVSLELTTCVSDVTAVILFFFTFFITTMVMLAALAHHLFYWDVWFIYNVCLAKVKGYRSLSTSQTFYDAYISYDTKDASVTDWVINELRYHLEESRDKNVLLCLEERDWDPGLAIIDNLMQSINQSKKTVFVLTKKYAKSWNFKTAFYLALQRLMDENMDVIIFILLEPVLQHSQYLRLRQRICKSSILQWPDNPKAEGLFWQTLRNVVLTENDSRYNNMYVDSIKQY
The assay can be described thus: TLR8 inhibition reporter assay (HEK-Blue cells, SEAP reporter, R848 stimulation). Conditions: HEK-Blue cells overexpressing human TLR8, SEAP reporter, R848 15.9 μM. The procedure, abridged: as §1

Another assay deals with T3, human TLR9 (Homo sapiens, UniProt Q9NR96).
T3 construct: host or cells: HEK-Blue cells
T3 sequence (Q9NR96 26-1032): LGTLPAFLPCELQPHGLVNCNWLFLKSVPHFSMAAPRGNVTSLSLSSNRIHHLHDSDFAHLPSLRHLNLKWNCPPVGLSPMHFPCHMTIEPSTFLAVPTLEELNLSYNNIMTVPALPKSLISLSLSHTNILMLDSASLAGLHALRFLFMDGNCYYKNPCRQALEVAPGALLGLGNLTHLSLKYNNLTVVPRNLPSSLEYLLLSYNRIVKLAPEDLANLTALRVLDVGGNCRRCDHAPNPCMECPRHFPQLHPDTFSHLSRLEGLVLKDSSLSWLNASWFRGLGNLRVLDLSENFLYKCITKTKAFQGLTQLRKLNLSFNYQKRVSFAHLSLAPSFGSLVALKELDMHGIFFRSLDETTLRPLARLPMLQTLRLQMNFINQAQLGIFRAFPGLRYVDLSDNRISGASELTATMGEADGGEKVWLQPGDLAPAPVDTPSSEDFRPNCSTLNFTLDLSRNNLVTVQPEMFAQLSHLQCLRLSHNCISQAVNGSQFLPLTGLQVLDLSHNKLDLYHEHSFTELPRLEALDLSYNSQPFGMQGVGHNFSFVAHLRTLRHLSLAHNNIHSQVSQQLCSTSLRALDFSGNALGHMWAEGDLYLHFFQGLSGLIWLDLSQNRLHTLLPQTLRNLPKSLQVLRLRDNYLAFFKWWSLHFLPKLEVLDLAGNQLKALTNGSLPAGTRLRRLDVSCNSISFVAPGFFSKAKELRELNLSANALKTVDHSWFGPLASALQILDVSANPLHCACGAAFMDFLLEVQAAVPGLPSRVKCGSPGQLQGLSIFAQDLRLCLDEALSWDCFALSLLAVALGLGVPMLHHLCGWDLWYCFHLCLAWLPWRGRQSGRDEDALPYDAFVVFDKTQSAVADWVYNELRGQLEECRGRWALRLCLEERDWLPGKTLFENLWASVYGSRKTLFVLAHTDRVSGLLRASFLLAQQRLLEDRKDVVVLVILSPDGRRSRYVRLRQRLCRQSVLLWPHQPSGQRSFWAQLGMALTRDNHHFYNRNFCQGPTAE
The assay can be described thus: TLR9 inhibition reporter assay (HEK-Blue cells, SEAP reporter, ODN2006 stimulation). The note with it: HEK-Blue cells overexpressing human TLR9, SEAP reporter, ODN2006 5 nM. The procedure, abridged: as §1

In the case of `CNC(=O)CNC1CCC(c2ccc3[nH]c(-c4cc(OC)c5ncnn5c4)c(C(C)C)c3c2)CC1` (stereo not drawn) [Example 167], the IC50 (commonly the concentration that gives 50% inhibition) against human TLR7 came to 0.22 nM; against human TLR8 it was 0.62 nM; on human TLR9, 1300 nM.
On the same counts, the results for `Cc1c(-c2[nH]c3ccc(C4CCC(NC(=O)CN(C)C)CC4)cc3c2C(C)C)cn2ncnc2c1C` (stereo not drawn) [Example 123] are 0.52 nM, 1 nM and > 50000 nM.
For `COc1cc(-c2[nH]c3ccc(C4CCC(NC(=O)CNC5COC5)CC4)cc3c2C(C)C)cn2ncnc12` (stereo not drawn) [Example 139] the same measures were 18 nM, 40 nM and > 50000 nM.
With `CCc1c(-c2ccnc(C)c2)[nH]c2ccc(CNC(=O)C3CCN(C)CC3)cc12` [Example 446], the IC50 against human TLR7 was 541 nM; against human TLR8, 70 nM; against human TLR9, 406 nM.
With `Cc1cc(-c2[nH]c3ccc(C4CCC(N(C)C5CC5)CC4)cc3c2C(C)C)cn2ncnc12` (single isomer, unassigned) [Example 8], the IC50 amounted to 6 nM against human TLR7, 16 nM at human TLR8 and 3690 nM against human TLR9.
For `Cc1cc(-c2[nH]c3ccc(C4CCCN(C(=O)C5C(C)(C)C5(C)C)C4)cc3c2C(C)C)cc(C)n1` (stereo not drawn) [Example 198] the same measures were 384 nM, 1100 nM and 23800 nM.
Take `COc1cc(-c2[nH]c3ccc(C4CCCN(CC(C)(C)O)C4)cc3c2C(C)C)cn2ncnc12` (stereo not drawn) [Example 249]: the IC50 against human TLR7 stood at 2 nM; against human TLR8, 1.2 nM; on human TLR9 it was 2330 nM.
As for `Cc1c(-c2[nH]c3ccc(C4CN(CC(N)=O)C4)cc3c2C(C)C)cn2ncnc2c1C` [Example 548], the IC50 on human TLR7 is 4 nM; on human TLR8, 5.1 nM; at human TLR9, 8050 nM.
For `COc1cc(-c2[nH]c3ccc(C4CN(C(=O)CN(C)C)CCO4)cc3c2C(C)C)cn2ncnc12` (stereo not drawn) [Example 332] the same measures were 0.65 nM, 6.2 nM and 2800 nM.
`COc1cc(-c2[nH]c3ccc(C4CCC(NCC(F)(F)F)CC4)cc3c2C(C)C)cn2ncnc12` (single isomer, unassigned) [Example 108]: the IC50 was 7 nM against human TLR7, 38 nM on human TLR8 and 19800 nM against human TLR9.
For `COc1cc(-c2[nH]c3ccc(C4CCC(NC(C)=O)CC4)cc3c2C(C)C)cn2ncnc12` (single isomer, unassigned) [Example 116, N-(4-(3-isopropyl-2-(8-methoxy-[1,2,4]triazolo[1,5-a]pyridin-6-yl)-1H-indol-5-yl)cyclohexyl)acetamide] the same measures were 9 nM, 61 nM and > 50000 nM.
As for `CCCN1CC(c2ccc3[nH]c(-c4cn(C)c(=O)c(Cl)c4C)c(C(C)C)c3c2)C1` [Example 500], the IC50 is 16 nM against human TLR7, 13 nM at human TLR8 and 5370 nM on human TLR9.
For `Cc1c(-c2[nH]c3ccc(C4CN(CC#N)C4)cc3c2C(C)C)cn2ncnc2c1C` [Example 553], the values for the IC50 at human TLR7, on human TLR8 and on human TLR9 were 4 nM, 7.2 nM and 32300 nM, respectively.
For `Cc1c(-c2[nH]c3ccc(C4CCC(N5CC(F)(F)C5)CC4)cc3c2C(C)C)cn2ncnc2c1C` (stereo not drawn) [Example 25] the same measures were 49 nM, 180 nM and > 50000 nM.
On the same counts, the results for `Cc1cc(-c2[nH]c3ccc(CCN4CCCC(F)(F)C4)cc3c2C(C)C)cn(C)c1=O` [Example 404] are 50 nM, 31 nM and > 50000 nM.
For `Cc1c(-c2[nH]c3ccc(C4CCC(N(C)C)CC4)cc3c2C(C)C)cn2cnnc2c1C` (stereo not drawn) [Example 527] the same measures were 0.52 nM, 4.5 nM and 765 nM.
Take `Cc1cc(-c2[nH]c3ccc(C4CCCN(C(=O)C5(C)CC5)C4)cc3c2C(C)C)cc(C)n1` (stereo not drawn) [Example 202]: the IC50 is 4 nM against human TLR7, 35 nM against human TLR8 and 12200 nM at human TLR9.
On the same counts, the results for `Cc1c(-c2[nH]c3ccc(C4CCC(N(C)C)CC4)cc3c2C(C)C)cn2cnnc2c1C` (stereo not drawn) [Example 529] are 12 nM, 39 nM and 9130 nM.
For `COc1cc(-c2[nH]c3ccc(C4CCC(N5CCC5)CC4)cc3c2C(C)C)cn2ncnc12` (stereo not drawn) [Example 77] the same measures were 1 nM, 3.1 nM and 1920 nM.
For `Cc1c(-c2[nH]c3ccc(C4CCC(N5CC6(COC6)C5)CC4)cc3c2C(C)C)cn2ncnc2c1C` (stereo not drawn) [Example 113] the same measures were 1 nM, 0.79 nM and 3250 nM.
For `CNC1CCC(c2ccc3[nH]c(-c4cn5ncnc5c(C)c4C)c(C(C)C)c3c2)CC1` (stereo not drawn) [Example 91], the IC50 at human TLR7 came to 0.86 nM; at human TLR8, 2.7 nM; on human TLR9 it was 2700 nM.

For the origin of these results see patent US11878975B2, “Substituted indole compounds useful as TLR inhibitors” (BRISTOL-MYERS SQUIBB COMPANY, priority 2017, dated 2024).
